{"source": "paper PMC4694998", "about": "“Suppression of β-catenin/TCF transcriptional activity and colon tumor cell growth by dual inhibition of PDE5 and 10” (Oncotarget, 2015)", "key": {"purified ovine COX-2": {"molecular_target": "T1, purified ovine COX-2 (Ovis aries, UniProt P79208)", "T1 construct": "purchased Cayman", "T1 sequence (P79208 17-603)": "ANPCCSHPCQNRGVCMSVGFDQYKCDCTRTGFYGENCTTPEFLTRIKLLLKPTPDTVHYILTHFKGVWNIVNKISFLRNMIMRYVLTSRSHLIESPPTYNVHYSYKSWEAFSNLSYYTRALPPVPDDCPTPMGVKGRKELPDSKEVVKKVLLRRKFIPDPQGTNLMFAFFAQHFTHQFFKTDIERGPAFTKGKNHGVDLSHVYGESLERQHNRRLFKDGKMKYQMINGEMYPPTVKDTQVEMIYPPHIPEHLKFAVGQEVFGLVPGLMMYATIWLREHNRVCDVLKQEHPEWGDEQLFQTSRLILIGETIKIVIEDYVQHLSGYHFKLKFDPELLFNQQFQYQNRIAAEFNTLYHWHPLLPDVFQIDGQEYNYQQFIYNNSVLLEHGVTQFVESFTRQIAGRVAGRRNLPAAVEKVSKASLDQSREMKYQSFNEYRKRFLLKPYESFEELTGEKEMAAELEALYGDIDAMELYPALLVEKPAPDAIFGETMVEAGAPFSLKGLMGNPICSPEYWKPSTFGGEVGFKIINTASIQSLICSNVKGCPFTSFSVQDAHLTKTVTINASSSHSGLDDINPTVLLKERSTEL", "test": "COX-2 colorimetric assay", "format": "biochemical", "experimental": "(§1) COX-1 and COX-2 activities were measured using purified ovine COX-1 and COX-2 with colorimetric assay kits obtained from Cayman as previously reported. The activities of COX-1 and COX-2 were measured after the addition of arachidonic acid and incubation at 25°C for 5 min by absorbance at 590 nm as specified by the manufacturer.\n(§2) The IC50 values were determined as described previously. All experiments were repeated a minimum of three times to determine the reproducibility of the results. All error bars represent standard error of the mean (SEM). Statistical analysis of differences between samples was performed using the Student’s t-test. A P value of < 0.05 was considered statistically significant."}, "PDE10": {"molecular_target": "T2, PDE10 (Homo sapiens, UniProt Q9Y233)", "T2 construct": "purchased BPS Biosciences", "T2 sequence (Q9Y233 267-1055)": "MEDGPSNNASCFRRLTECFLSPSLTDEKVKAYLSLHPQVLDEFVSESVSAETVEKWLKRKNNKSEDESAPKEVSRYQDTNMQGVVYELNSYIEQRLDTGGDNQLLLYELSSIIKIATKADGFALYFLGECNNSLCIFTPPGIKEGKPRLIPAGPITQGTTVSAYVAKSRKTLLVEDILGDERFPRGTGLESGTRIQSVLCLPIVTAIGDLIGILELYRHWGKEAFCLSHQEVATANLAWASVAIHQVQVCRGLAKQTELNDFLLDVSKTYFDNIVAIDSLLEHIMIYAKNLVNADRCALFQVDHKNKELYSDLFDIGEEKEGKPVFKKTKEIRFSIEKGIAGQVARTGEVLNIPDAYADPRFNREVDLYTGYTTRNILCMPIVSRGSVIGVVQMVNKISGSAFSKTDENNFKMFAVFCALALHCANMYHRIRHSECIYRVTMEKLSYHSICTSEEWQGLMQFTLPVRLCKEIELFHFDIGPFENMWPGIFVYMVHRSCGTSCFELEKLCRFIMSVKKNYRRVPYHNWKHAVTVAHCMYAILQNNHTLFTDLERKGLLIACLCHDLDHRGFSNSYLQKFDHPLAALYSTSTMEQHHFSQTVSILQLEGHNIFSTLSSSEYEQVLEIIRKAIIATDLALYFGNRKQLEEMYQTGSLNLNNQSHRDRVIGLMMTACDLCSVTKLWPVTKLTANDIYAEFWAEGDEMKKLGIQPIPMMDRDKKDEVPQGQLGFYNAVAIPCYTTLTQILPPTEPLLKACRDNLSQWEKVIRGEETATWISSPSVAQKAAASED", "test": "IMAP fluorescence polarization PDE assay, recombinant PDE10", "format": "biochemical", "details": "recombinant enzyme", "experimental": "Recombinant PDE isozymes were purchased from BPS Biosciences. The PDE10 antibody was purchased from GeneTex, while the PDE5 antibody was purchased from Cell Signaling Technologies. Non-targeting control siRNA and PDE10 specific siRNAs were purchased from Qiagen. RNAiMAX transfection reagent was purchased from Invitrogen. DMSO was used as vehicle for all compounds unless otherwise noted. All other reagents were purchased from Sigma.\nPDE activity was measured using the IMAP fluorescence polarization (FP) PDE assay (Molecular Devices) in which binding of hydrolyzed fluorescent cyclic nucleotide substrate to the IMAP reagent increases FP as described previously.\nas §2"}, "[1]": {"system": "PKG activity (phospho-Ser239 VASP) in HCT116 colon tumor cells", "test": "Western blotting of VASP phosphorylation, HCT116", "format": "cell-based, human", "experimental": "(§3) Western blotting was performed as described previously. Cells were treated with ADT-094 or vehicle for 8 hours before cell lysates were collected."}, "[2]": {"system": "intracellular cGMP in HCT116 colon tumor cells", "test": "cGMP assay (EIA), HCT116", "format": "cell-based, human", "details": "45 min of treatment", "experimental": "(§4) Cells were plated at a density of 1 × 10^6 cells per 10 cm tissue culture dish, incubated for 48 hours, and treated with ADT-094 or vehicle control. After 45 min of treatment, cells were lysed and assayed for cGMP content using the cGMP Direct Biotrak EIA kit (GE Healthcare Life Sciences). The assay was done according to the manufacturer’s specifications."}, "[3]": {"system": "β-catenin/TCF transcriptional activity in SW480 cells", "test": "TOP-FLASH luciferase reporter assay, SW480", "format": "cell-based, human", "details": "SW480, 24 hours of treatment", "experimental": "Cells were seeded at a density of 5 × 10^4 cells per well in 24-well tissue culture plates and incubated overnight at 37°C. Cells were transiently transfected with 0.1 μg TOP-FLASH constructs (Millipore) and 0.1 μg β-galactosidase-expressing vector (Promega). After 24 hours of transfection, cells were treated with ADT-094 or vehicle for 24 hours. At the end of treatment, cells were lysed and both luciferase and β-galactosidase activities were measured using kits from Promega. All luciferase activity was normalized to β-galactosidase activity."}, "[4]": {"system": "intracellular cGMP in normal colonocytes", "test": "cGMP assay (EIA), colonocytes", "format": "cell-based, human", "details": "45 min of treatment", "experimental": "as §4"}, "purified ovine COX-1": {"molecular_target": "T3, purified ovine COX-1 (Ovis aries, UniProt P05979)", "T3 construct": "purchased Cayman", "T3 sequence (P05979 25-600)": "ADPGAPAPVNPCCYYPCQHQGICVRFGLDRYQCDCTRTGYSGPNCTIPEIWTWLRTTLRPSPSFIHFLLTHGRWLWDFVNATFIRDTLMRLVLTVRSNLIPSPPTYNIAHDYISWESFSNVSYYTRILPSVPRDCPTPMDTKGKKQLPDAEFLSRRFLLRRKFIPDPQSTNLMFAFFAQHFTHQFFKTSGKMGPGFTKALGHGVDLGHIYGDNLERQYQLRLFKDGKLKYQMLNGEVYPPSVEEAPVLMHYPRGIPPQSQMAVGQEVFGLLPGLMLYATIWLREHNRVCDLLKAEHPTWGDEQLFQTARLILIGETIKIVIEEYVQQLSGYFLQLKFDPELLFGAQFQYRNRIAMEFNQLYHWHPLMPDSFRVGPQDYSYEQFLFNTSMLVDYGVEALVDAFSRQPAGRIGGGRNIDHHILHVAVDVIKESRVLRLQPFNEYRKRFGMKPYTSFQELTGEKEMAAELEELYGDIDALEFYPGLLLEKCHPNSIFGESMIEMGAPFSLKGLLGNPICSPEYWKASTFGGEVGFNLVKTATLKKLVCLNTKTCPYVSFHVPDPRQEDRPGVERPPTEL", "test": "COX-1 colorimetric assay", "format": "biochemical", "experimental": "as §1, §2"}, "[5]": {"system": "β-catenin signaling in HCT116 colon tumor cells", "test": "Western blotting of β-catenin, cyclin D1, survivin, HCT116", "format": "cell-based, human", "experimental": "as §3"}}, "data": [{"smiles": "COc1ccc2c(c1)C(CC(=O)NCc1ccco1)=C(C)/C2=C/c1cc(OC)c(OC)c(OC)c1", "note": "[ADT-094, (Z)-N-(furan-2-ylmethyl)-2-(5-methoxy-2-methyl-1-(3,4,5-trimethoxybenzylidene)-1H-inden-3-yl) acetamide]", "values": [{"measurement": "IC50", "setting": "purified ovine COX-2; Figure 3A", "value": 145, "unit": "µM"}, {"measurement": "COX-2 inhibitory activity", "setting": "purified ovine COX-2; in words", "value": "essentially lacks"}, {"measurement": "IC50", "setting": "PDE10", "value": 0.5, "unit": "µM"}, {"measurement": "phospho-Ser239 VASP levels (PKG activity)", "setting": "[1]", "value": "increased"}, {"measurement": "intracellular cGMP levels", "setting": "[2]", "value": "significantly increased"}, {"measurement": "β-catenin/TCF transcriptional activity", "setting": "[3]", "value": "significantly inhibited"}, {"measurement": "intracellular cGMP levels", "setting": "[4]", "value": "did not significantly affect"}, {"measurement": "IC50", "setting": "purified ovine COX-1; Figure 3A", "value": 81, "unit": "µM"}, {"measurement": "COX-1 inhibitory activity", "setting": "purified ovine COX-1; in words", "value": "essentially lacks"}, {"measurement": "levels of cyclin D1 and survivin", "setting": "[5]", "value": "also decreased"}, {"measurement": "β-catenin levels", "setting": "[5]", "value": "dose-dependent decrease"}]}]}
